Assay: LPO-CC Kamiya Bioscience kit anti-oxidant efficacy assay (methylene blue, optical density at 674 nm)
Type: biochemical
Conditions: simple composition containing 1.0% by weight of active; compared with 1.0% vitamin E; FIG. 1; lower optical density at 674 nm = better efficacy
Description: Reaction processes in the kit used can be summarized as follows. Cumene hydroperoxide (CHO) is combined with an enzyme mixture of ascorbic oxidase and lipoprotein lipase in order to produce lipid peroxide. Samples and standards are then combined with a second reagent containing methyl carbamate (MCDP) and hemoglobin. In the presence of hemoglobin, lipid peroxides are converted to lipid alcohols which in turn convert the MCDP to methylene blue that can be read at 674 nm. This translates to decreased color intensity which is measured by spectroscopy at 674 nm. […] In other words, the lower the optical density reading the better the anti-oxidant efficacy.

In the case of O=c1c(O)c(-c2ccc(O)cc2O)oc2cc(O)cc(O)c12 [morin, 2′,3,4′,5,7-pentahydroxyflavone], the anti-oxidative efficacy is reported as “anti-oxidative efficacy as good as positive control vitamin E”.
